Several values for one entry are separate records, joined by “and”; a condition that tells them apart may be missing. Identical values can stand only once.
Assay: radiation dosimetry (OLINDA/EXM) from baboon PET data
Assay type: Reference Adult Male based on baboon PET imaging data
Protocol: For each time-point, the activity concentration (in Bq/cm^3) was measured in each of the 14 delineated organs and multiplied by the organ volume to obtain the total activity per time point per organ. The measured values were then decay-corrected and divided by the baboon organ mass, determined by the CT density and volume from the drawn contours, and the injected radioactivity to obtain the fraction of initial radioactivity per gram (FIA/g) for each time point and each organ. The baboon FIA/g values were then converted to human FIA (per organ) using the following equation (Schwartz et al., 2011; Woodard et al., 1975): […]
That approach assumes that the concentration of activity in a particular tissue relative to the overall concentration in the whole body is preserved across species (i.e., organ concentration/total body concentration is the same for baboon and man). The resulting human FIA values were plotted as a function of time (nine data points) for each organ and fit to a bi-exponential expression: FIA(t)=A1.e^−(λ1^bio^.t)+A2.e^−(Δ2^bio^.t) (2)
where A1, A2, λ1bio, and λ2bio are fit parameters. The sum of A1 and A2 give the back-extrapolated, time-zero fraction of administered radioactivity in each organ, and λ1bio and λ2bio are the biological clearance constants. The equation for the time-integrated activity coefficient [TIAC, previously known as residence time (Bolch et al., 2009) for each source organ was obtained, as its name implies, by integrating equation (2) and introducing a physical decay term, λφ, which depends on the isotope used:
TIACs were calculated for ^90Y, ^177Lu and ^86Y, with their corresponding physical decay constants: ^90Y λφ=0.01083 h^−1 (T1/2=64.0 h); ^177Lu λφ=0.00429 h^−1 (T1/2=161.52 h) and ^86Y λφ=0.04702 h^−1 (T1/2=14.74 h), respectively voiding. Radiation absorbed doses were obtained by converting time-integrated activity to absorbed doses according to the MIRD absorbed fraction methodology (Bolch et al., 2009) through the use of the OLINDA/EXM software (Stabin et al., 2005). The TIAC for the urinary bladder was obtained using the MIRD bladder model implemented in OLINDA/EXM. Input to that model requires the whole-body TIAC, which was obtained from the equation FIA(t)=A. e^(−λ^bio^t) fitted to whole-body retention kinetics. The voiding interval was set to 2 h. The TIACs were then input into OLINDA/EXM (Stabin et al., 2005), and the resulting absorbed dose per unit of radioactivity obtained for the 14 organs. The specific kidney model in OLINDA/EXM was used to obtain the renal cortex dose values. The absorbed dose from organs external to the kidney was added to the renal cortex dose calculated from the internal kidney model. The specific prostate model was used for prostate self-dose, and external dose to the bladder was added as a surrogate for the whole body to prostate dose. The self-dose component of the absorbed dose per unit activity for the salivary glands was obtained using 3D-RD Monte Carlo (EGSnrc) and a human CT with delineated salivary glands. The cross-dose component was taken by assuming the same cross-dose for a like-sized organ (pancreas).
Measured activity concentration (in Bq/cm^3) values per time point per organ were decay-corrected and divided by the baboon organ mass, determined by the CT density and volume from the drawn contours, and the injected radioactivity to obtain the fraction of initial radioactivity per gram (FIA/g) for each time point and each organ. The baboon FIA/g values were then converted to human FIA (per organ) using the related equation (Olszewski et al., 2004; Schwartz et al., 2011). The resulting human FIA values were then plotted as a function of time and fit to a bi-exponential expression and the value for the time-integrated activity coefficient (TIAC, previously known as residence time (Woodard et al., 1975)) for each source organ was calculated. […]

O=C([O-])CN1CCN(CC(=O)[O-])CCN(CC(=O)[O-])C(Cc2ccc(NC(=S)NCCCCNC(=O)CCCCCCC(=O)NCCCC[C@H](NC(=O)N[C@@H](CCC(=O)O)C(=O)O)C(=O)O)cc2)CN(CC(=O)[O-])CC1.[86Y+3] (some centres unmarked) [^86Y-6]
Organ absorbed dose, Adrenals (^86Y): 8.62E−02 mGy/MBq
Organ absorbed dose, Brain (^86Y): 2.30E−02 mGy/MBq
Organ absorbed dose, Breasts (^86Y): 4.52E−02 mGy/MBq
Organ absorbed dose, Gallbladder wall (^86Y): 7.88E−02 mGy/MBq
Organ absorbed dose, Heart wall (^86Y): 6.70E−02 mGy/MBq
Organ absorbed dose, Kidneys (^86Y): 4.03E−01 mGy/MBq
Organ absorbed dose, LLI wall (^86Y): 9.61E−02 mGy/MBq
Organ absorbed dose, Liver (^86Y): 7.19E−02 mGy/MBq
Organ absorbed dose, Lungs (^86Y): 5.98E−02 mGy/MBq
Organ absorbed dose, Muscle (^86Y): 5.47E−02 mGy/MBq
Organ absorbed dose, Osteogenic cells (^86Y): 7.19E−02 mGy/MBq
Organ absorbed dose, Ovaries (^86Y): 9.48E−02 mGy/MBq
Organ absorbed dose, Pancreas (^86Y): 8.09E−02 mGy/MBq
Organ absorbed dose, Prostate (^86Y): 7.64E−02 mGy/MBq
Organ absorbed dose, Red marrow (^86Y): 6.29E−02 mGy/MBq
Organ absorbed dose, Renal cortex (^86Y): 4.24E−01 mGy/MBq
Organ absorbed dose, Salivary glands (^86Y): 1.78E−01 mGy/MBq
Organ absorbed dose, Skin (^86Y): 3.97E−02 mGy/MBq
Organ absorbed dose, Small intestine (^86Y): 8.72E−02 mGy/MBq
Organ absorbed dose, Spleen (^86Y): 7.23E−02 mGy/MBq
Organ absorbed dose, Stomach wall (^86Y): 6.69E−02 mGy/MBq
Organ absorbed dose, Testes (^86Y): 7.23E−02 mGy/MBq
Organ absorbed dose, Thymus (^86Y): 5.38E−02 mGy/MBq
Organ absorbed dose, Thyroid (^86Y): 5.07E−02 mGy/MBq
Organ absorbed dose, ULI wall (^86Y): 8.56E−02 mGy/MBq
Organ absorbed dose, Urinary bladder wall (^86Y): 6.17E−01 mGy/MBq
Organ absorbed dose, Uterus (^86Y): 1.34E−01 mGy/MBq
Time-integrated activity coefficient (residence time), Brain (^86Y): 1.41E−02 MBq-h/MBq
Time-integrated activity coefficient (residence time), Heart contents (^86Y): 2.55E−02 MBq-h/MBq
Time-integrated activity coefficient (residence time), Kidneys (^86Y): 4.08E−01 MBq-h/MBq
Time-integrated activity coefficient (residence time), Liver (^86Y): 1.37E−01 MBq-h/MBq
Time-integrated activity coefficient (residence time), Lungs (^86Y): 9.70E−02 MBq-h/MBq
Time-integrated activity coefficient (residence time), Muscle (^86Y): 4.76E−01 MBq-h/MBq
Time-integrated activity coefficient (residence time), Pancreas (^86Y): 6.37E−03 MBq-h/MBq
Time-integrated activity coefficient (residence time), Prostate (^86Y): 1.15E−03 MBq-h/MBq
Time-integrated activity coefficient (residence time), Remainder (^86Y): 3.64 MBq-h/MBq
Time-integrated activity coefficient (residence time), Renal cortex (^86Y): 3.23E−01 MBq-h/MBq
Time-integrated activity coefficient (residence time), Salivary Glands (^86Y): 4.45E−02 MBq-h/MBq
Time-integrated activity coefficient (residence time), Small intestine (^86Y): 9.31E−03 MBq-h/MBq
Time-integrated activity coefficient (residence time), Spleen (^86Y): 7.41E−03 MBq-h/MBq
Time-integrated activity coefficient (residence time), Stomach (^86Y): 6.44E−03 MBq-h/MBq
Time-integrated activity coefficient (residence time), ULI (^86Y): 1.99E−02 MBq-h/MBq
Time-integrated activity coefficient (residence time), Ur. bladder contents (^86Y): 7.41E−01 MBq-h/MBq
effective dose (^86Y, calculated in OLINDA/EXM): 0.099 mSv/MBq
Organ absorbed dose, Adrenals (^90Y): 3.46E−02 mGy/MBq
Organ absorbed dose, Brain (^90Y): 6.79E−03 mGy/MBq
Organ absorbed dose, Breasts (^90Y): 3.46E−02 mGy/MBq
Organ absorbed dose, Gallbladder wall (^90Y): 3.46E−02 mGy/MBq
Organ absorbed dose, Heart wall (^90Y): 5.33E−02 mGy/MBq
Organ absorbed dose, Kidneys (^90Y): 1.13 mGy/MBq
Organ absorbed dose, LLI wall (^90Y): 3.46E−02 mGy/MBq
Organ absorbed dose, Liver (^90Y): 4.99E−02 mGy/MBq
Organ absorbed dose, Lungs (^90Y): 6.57E−02 mGy/MBq
Organ absorbed dose, Muscle (^90Y): 1.32E−02 mGy/MBq
Organ absorbed dose, Osteogenic cells (^90Y): 5.26E−02 mGy/MBq
Organ absorbed dose, Ovaries (^90Y): 3.46E−02 mGy/MBq
Organ absorbed dose, Pancreas (^90Y): 4.64E−02 mGy/MBq
Organ absorbed dose, Prostate (^90Y): 4.78E−02 mGy/MBq
Organ absorbed dose, Red marrow (^90Y): 2.41E−02 mGy/MBq
Organ absorbed dose, Renal cortex (^90Y): 1.19 mGy/MBq
Organ absorbed dose, Salivary glands (^90Y): 2.79E−01 mGy/MBq
Organ absorbed dose, Skin (^90Y): 3.46E−02 mGy/MBq
Organ absorbed dose, Small intestine (^90Y): 4.29E−02 mGy/MBq
Organ absorbed dose, Spleen (^90Y): 1.64E−02 mGy/MBq
Organ absorbed dose, Stomach wall (^90Y): 3.46E−02 mGy/MBq
Organ absorbed dose, Testes (^90Y): 3.46E−02 mGy/MBq
Organ absorbed dose, Thymus (^90Y): 3.46E−02 mGy/MBq
Organ absorbed dose, Thyroid (^90Y): 3.46E−02 mGy/MBq
Organ absorbed dose, ULI wall (^90Y): 6.29E−02 mGy/MBq
Organ absorbed dose, Urinary bladder wall (^90Y): 1.25 mGy/MBq
Organ absorbed dose, Uterus (^90Y): 3.46E−02 mGy/MBq
Time-integrated activity coefficient (residence time), Brain (^90Y): 1.79E−02 MBq-h/MBq
Time-integrated activity coefficient (residence time), Heart contents (^90Y): 3.15E−02 MBq-h/MBq
Time-integrated activity coefficient (residence time), Kidneys (^90Y): 6.43E−01 MBq-h/MBq
Time-integrated activity coefficient (residence time), Liver (^90Y): 1.77E−01 MBq-h/MBq
Time-integrated activity coefficient (residence time), Lungs (^90Y): 1.22E−01 MBq-h/MBq
Time-integrated activity coefficient (residence time), Muscle (^90Y): 6.85E−01 MBq-h/MBq
Time-integrated activity coefficient (residence time), Pancreas (^90Y): 8.42E−03 MBq-h/MBq
Time-integrated activity coefficient (residence time), Prostate (^90Y): 1.42E−03 MBq-h/MBq
Time-integrated activity coefficient (residence time), Remainder (^90Y): 4.74 MBq-h/MBq
Time-integrated activity coefficient (residence time), Renal cortex (^90Y): 5.27E−01 MBq-h/MBq
Time-integrated activity coefficient (residence time), Salivary Glands (^90Y): 4.88E−02 MBq-h/MBq
Time-integrated activity coefficient (residence time), Small intestine (^90Y): 1.32E−02 MBq-h/MBq
Time-integrated activity coefficient (residence time), Spleen (^90Y): 1.15E−02 MBq-h/MBq
Time-integrated activity coefficient (residence time), Stomach (^90Y): 8.06E−03 MBq-h/MBq
Time-integrated activity coefficient (residence time), ULI (^90Y): 2.51E−02 MBq-h/MBq
Time-integrated activity coefficient (residence time), Ur. bladder contents (^90Y): 9.54E−01 MBq-h/MBq
Organ absorbed dose, Adrenals (^177Lu): 6.96E−03 mGy/MBq
Organ absorbed dose, Brain (^177Lu): 1.48E−03 mGy/MBq
Organ absorbed dose, Breasts (^177Lu): 6.08E−03 mGy/MBq
Organ absorbed dose, Gallbladder wall (^177Lu): 6.79E−03 mGy/MBq
Organ absorbed dose, Heart wall (^177Lu): 9.54E−03 mGy/MBq
Organ absorbed dose, Kidneys (^177Lu): 2.10E−01 mGy/MBq
Organ absorbed dose, LLI wall (^177Lu): 7.06E−03 mGy/MBq
Organ absorbed dose, Liver (^177Lu): 9.37E−03 mGy/MBq
Organ absorbed dose, Lungs (^177Lu): 1.16E−02 mGy/MBq
Organ absorbed dose, Muscle (^177Lu): 3.26E−03 mGy/MBq
Organ absorbed dose, Osteogenic cells (^177Lu): 1.94E−02 mGy/MBq
Organ absorbed dose, Ovaries (^177Lu): 7.05E−03 mGy/MBq
Organ absorbed dose, Pancreas (^177Lu): 9.34E−03 mGy/MBq
Organ absorbed dose, Prostate (^177Lu): 7.94E−03 mGy/MBq
Organ absorbed dose, Red marrow (^177Lu): 5.04E−03 mGy/MBq
Organ absorbed dose, Renal cortex (^177Lu): 0.245 mGy/MBq and 2.45E−01 mGy/MBq
Organ absorbed dose, Salivary glands (^177Lu): 4.76E−02 mGy/MBq
Organ absorbed dose, Skin (^177Lu): 6.01E−03 mGy/MBq
Organ absorbed dose, Small intestine (^177Lu): 8.30E−03 mGy/MBq
Organ absorbed dose, Spleen (^177Lu): 7.16E−03 mGy/MBq
Organ absorbed dose, Stomach wall (^177Lu): 7.88E−03 mGy/MBq
Organ absorbed dose, Testes (^177Lu): 6.56E−03 mGy/MBq
Organ absorbed dose, Thymus (^177Lu): 6.29E−03 mGy/MBq
Organ absorbed dose, Thyroid (^177Lu): 6.26E−03 mGy/MBq
Organ absorbed dose, ULI wall (^177Lu): 1.16E−02 mGy/MBq
Organ absorbed dose, Urinary bladder wall (^177Lu): 2.14E−01 mGy/MBq
Organ absorbed dose, Uterus (^177Lu): 7.76E−03 mGy/MBq
Time-integrated activity coefficient (residence time), Brain (^177Lu): 1.89E−02 MBq-h/MBq
Time-integrated activity coefficient (residence time), Heart contents (^177Lu): 3.30E−02 MBq-h/MBq
Time-integrated activity coefficient (residence time), Kidneys (^177Lu): 7.24E−01 MBq-h/MBq
Time-integrated activity coefficient (residence time), Liver (^177Lu): 1.88E−01 MBq-h/MBq
Time-integrated activity coefficient (residence time), Lungs (^177Lu): 1.28E−01 MBq-h/MBq
Time-integrated activity coefficient (residence time), Muscle (^177Lu): 8.15E−01 MBq-h/MBq
Time-integrated activity coefficient (residence time), Pancreas (^177Lu): 9.00E−03 MBq-h/MBq
Time-integrated activity coefficient (residence time), Prostate (^177Lu): 1.48E−03 MBq-h/MBq
Time-integrated activity coefficient (residence time), Remainder (^177Lu): 4.84 MBq-h/MBq
Time-integrated activity coefficient (residence time), Renal cortex (^177Lu): 6.02E−01 MBq-h/MBq
Time-integrated activity coefficient (residence time), Salivary Glands (^177Lu): 4.97E−02 MBq-h/MBq
Time-integrated activity coefficient (residence time), Small intestine (^177Lu): 1.43E−02 MBq-h/MBq
Time-integrated activity coefficient (residence time), Spleen (^177Lu): 1.29E−02 MBq-h/MBq
Time-integrated activity coefficient (residence time), Stomach (^177Lu): 8.46E−03 MBq-h/MBq
Time-integrated activity coefficient (residence time), ULI (^177Lu): 2.64E−02 MBq-h/MBq
Time-integrated activity coefficient (residence time), Ur. bladder contents (^177Lu): 1.00 MBq-h/MBq
highest mean absorbed dose, renal cortex (overview text b262): 1.9 mGy per MBq

— patent US10683272B2 (THE JOHNS HOPKINS UNIVERSITY, priority 2014, dated 2020)
